Measurements: PubChem BioAssay AID856 (The Scripps Research Institute Molecular Screening Center, 2007)
Values joined by “and” are separate entries in the source; they are usually repeats but may differ in a detail not shown here. Equal entries are not always repeated. Active and inactive are the calls of the source. The rule behind the calls is not given here.

system: CRE-bla reporter cells, beta-lactamase FRET, antagonist mode; experiment: inhibition of CRE beta-lactamase reporter – cell-based, beta-lactamase FRET, counter-screen for S1P2 antagonist project, dose response (AID 856)

Structure (SMILES) | IC50
CCCCS(=O)(=O)/C=C\C=C/S(=O)(=O)CCCC | 1960 nM
Cc1nc2c(=O)n(C)c(=O)nc-2n(C)n1 | 1270 nM
Cc1nn(-c2ccccc2)c2c1C(c1ccc(O)c(O)c1)N1C(=N2)C(Nc2ccccc2)=Nc2ccccc21 (configuration not stated) | 10500 nM (inactive)
COc1ccc(OC)c(NC(=O)CSc2ncnc3c2cnn3-c2ccccc2Cl)c1 | 640 nM
COC(=O)C1CN(C#N)N(c2ccc(Cl)cc2)C12c1ccccc1-c1ccccc12 (configuration not stated) | 607 nM
Cn1nc(-c2ccc(Cl)cc2)nc2c(=O)n(C)c(=O)nc1-2 | 634 nM
COC(=O)c1sc2cc(C(F)(F)F)cnc2c1-c1cccs1 | > 40000 nM (inactive)
Cc1ccsc1C(=O)Nc1ccc(F)cc1 | > 40000 nM (inactive)
O=C(NC(Nc1nc2ccc([N+](=O)[O-])cc2s1)(C(F)(F)F)C(F)(F)F)c1ccccc1 | 101 nM
CCCCCCCCCCn1c2c(c(=N)c3c1CCC3)CCC2 | 333 nM
COc1ccc(NC(=O)/C(Cl)=C(/Cl)S(=O)(=O)Cc2ccccc2)cn1 | 1560 nM
CCOC(=O)N1CCN(C(=O)CSCC(=O)Nc2nc(-c3ccc(-c4ccccc4)cc3)cs2)CC1 | 873 nM
FC(F)(F)c1cnc2c(-c3cccs3)c(-c3ncn[nH]3)sc2c1 | > 40000 nM (inactive)
CC1=C/C(=N\OS(=O)(=O)c2ccccc2)C(C)=CC1=O | 2390 nM
CC1=C(C)/C(=N\OS(=O)(=O)c2ccccc2)C=CC1=O | 2650 nM
N#CC(c1cccc(Cl)c1)c1ccc2c(C(F)(F)F)cc(C(F)(F)F)nc2n1 (configuration not stated) | 90 nM
CCn1c(=O)c(C(=O)Nc2nc3ccccc3[nH]2)c(O)c2ccccc21 | 29100 nM (inactive)
O=C(Nc1ccc(S(=O)(=O)N2CCOCC2)cc1)c1ccc(CN2CCc3ccccc3C2)cc1 | 773 nM
Nc1nc(Cl)cc(N2CCC(c3cc(-c4ccc(Cl)cc4)n[nH]3)CC2)n1 | 1490 nM
O=C(O)c1sc2cc(C(F)(F)F)cnc2c1-c1cccnc1 | > 40000 nM (inactive)
CCN(C(=O)c1ccc(C(C)(C)C)cc1)c1nnc(Cn2nnc3ccccc32)s1 | 1800 nM
CC1=C/C(=N\OS(=O)(=O)c2ccccc2)C=CC1=O | 2920 nM
Cn1c(-c2c(N)n(CCCc3ccccc3)c3nc4ccccc4nc23)nc2ccccc21 | > 50000 nM (inactive)
O=C(OCn1ncc(Cl)c(Cl)c1=O)c1ccccc1Cl | 2580 nM
O=C(O)c1sc2cc(C(F)(F)F)cnc2c1-c1ccccc1 | > 40000 nM (inactive)
CCN1/C(=C\C=C\C2=[N+](CC)c3ccccc3C2(C)C)C(C)(C)c2ccccc21 | 64 nM

Structure (SMILES) | IC50
O=C(Nc1ccc(F)cc1)c1sc2cc(C(F)(F)F)cnc2c1-c1cccs1 | > 50 µM (inactive) and > 40 µM (inactive)
O=C(Nc1ccc(F)cc1)c1cccs1 | > 40000 nM (inactive)
CCCCCCCCCn1c2c(c(=N)c3c1CCC3)CCC2 | 459 nM
COC(=O)c1sc2cc(C(F)(F)F)cnc2c1-c1cccnc1 | > 40000 nM (inactive)
CN(C)C=NC(=O)c1sc2cc(C(F)(F)F)cnc2c1-c1cccs1 | > 40000 nM (inactive)
COc1ccc2c(c1)[nH]c1c(N3CCN(Cc4ccc5c(c4)OCO5)CC3)ncnc12 | 1400 nM
CCOC(=O)C1C(=O)CC(C)(O)C(C(=O)OCC)C1c1ccccc1 (configuration not stated) | > 50000 nM (inactive)
Cc1ccc2[nH]c3c(N4CCCCCC4)ncnc3c2c1 | 1810 nM
Cn1c(-c2c(N)n(C3CCCC3)c3nc4ccccc4nc23)nc2ccccc21 | 2370 nM
CCOC(=O)c1cnc(-n2nc(C)cc2C)nc1NC1CCCCC1 | 1750 nM
Cc1cc(/C=N/n2cnnc2)c(C)n1-c1ccc(OCc2ccc(Cl)cc2)cc1 | 362 nM
O=C(c1sc2cc(C(F)(F)F)cnc2c1-c1ccccc1)N1CCOCC1 | > 40000 nM (inactive)
O=C(O)c1sc2cc(C(F)(F)F)cnc2c1-c1ccco1 | > 40000 nM (inactive)
CCC(NC(=O)Nc1nnc(C(F)(F)F)s1)(C(F)(F)F)C(F)(F)F | 1260 nM
O=C(c1cc(NC(=O)C23CC4CC(CC(C4)C2)C3)cc(NC(=O)C23CC4CC(CC(C4)C2)C3)c1)N1CCCCC1 | 793 nM
FC(F)(F)c1cnc2c(-c3cccs3)csc2c1 | > 40000 nM (inactive)
Cc1cccc(NC2=Nc3ccccc3N3C2=Nc2c(c(C)nn2-c2ccccc2)C3c2ccc(O)c(O)c2)c1 (configuration not stated) | 8000 nM
Cc1ccc(-c2nn(-c3ccccc3)cc2/C=N/NC(=O)c2ccc(Br)o2)cc1 | 1820 nM
CCCC(=O)N1CCN(c2ccc(NC(=O)c3cc4ccccc4o3)cc2Cl)CC1 | 2950 nM
O=C(OCn1ncc(Cl)c(Cl)c1=O)c1ccc(F)cc1 | 3810 nM
O=C(O)c1sc2cc(C(F)(F)F)cnc2c1-c1ccccn1 | > 40000 nM (inactive)
Cc1n[nH]c(C)c1N1C(=O)c2cccc3c(Br)ccc(c23)C1=O | 5750 nM
COc1cccc(-c2nnc3n2N=C(C(C)(C)C)CS3)c1 | 1070 nM
COc1ccccc1C(=O)Nc1nc(-c2ccc(S(=O)(=O)N3CCOCC3)cc2)cs1 | 2250 nM
COc1ccc(CS(=O)(=O)/C(Cl)=C(/Cl)C(=O)Nc2ccc(OC)nc2)cc1 | 1840 nM
Cc1ccc(NC2=Nc3ccccc3N3C2=Nc2c(c(C)nn2-c2ccccc2)C3c2ccc(O)c(O)c2)cc1 (configuration not stated) | 9980 nM

Structure (SMILES) | IC50
N#C/C(=C/c1ccc(N2CCCCCC2)o1)c1ccc(F)cc1 | 9670 nM
CN(C)C=NC(=O)c1sc2cc(C(F)(F)F)cnc2c1-c1ccccc1 | > 40000 nM (inactive)
Cc1nc(-c2cccs2)sc1C(=O)Nc1ccc(F)cc1 | > 40000 nM (inactive)
COC(=O)c1sc2cc(C(F)(F)F)cnc2c1-c1ccccc1 | > 40000 nM (inactive)
COC(=O)c1sc2cc(C(F)(F)F)cnc2c1-c1ccccn1 | > 40000 nM (inactive)
CC(=O)Nc1cc(OC(C)=O)c2nonc2c1OC(C)=O | 3340 nM
COc1ccc(NC(=O)/C(Cl)=C(/Cl)S(=O)(=O)Cc2ccc(C)cc2)cn1 | 1430 nM
O=C(C#Cc1cccc([N+](=O)[O-])c1)c1ccccc1 | 2270 nM
Cc1ccc(-n2c(-c3ccc(Br)cc3)c[n+]3c2CCc2ccc4cccnc4c2-3)cc1 | 1490 nM
O=C(Nc1ccc(F)cc1)c1sc(-c2ccccc2)nc1C(F)(F)F | > 40000 nM (inactive)
O=S(=O)(C/C(=C/CO)S(=O)(=O)c1ccccc1)c1ccccc1 | 3710 nM
Cc1ccc(C(=O)OCn2ncc(Cl)c(Cl)c2=O)cc1 | 3080 nM
NC(=O)c1sc2cc(C(F)(F)F)cnc2c1-c1cccs1 | > 40000 nM (inactive)
CCN1/C(=C/c2ccc3ccccc3[n+]2CC)C=Cc2ccccc21 | 1080 nM
O=C(O)c1sc2cc(C(F)(F)F)cnc2c1-c1cccs1 | > 40000 nM (inactive)
Fc1ccc(-n2nnnc2-c2cnc(-c3cccs3)nc2C(F)(F)F)cc1 | 2920 nM
O=S1(=O)C=C(Sc2nc3cc(Cl)ccc3o2)c2ccccc21 | 4040 nM
CCCCCCCCNc1ncnc2ccccc12 | 42 nM
O=C(Nc1ccc(F)cc1)c1sccc1S(=O)(=O)Cc1cccc(C(F)(F)F)c1 | > 40000 nM (inactive)
CCN(CC)c1ccc2c(Cl)c(Br)c(=O)oc2c1 | 4370 nM
O=C(Nc1ccc(F)cc1)c1cc(-c2cccs2)nc2ccccc12 | > 40000 nM (inactive)
COc1ccc(NC(=O)/C(Cl)=C(/Cl)S(=O)Cc2ccccc2)cn1 (configuration not stated) | 1280 nM
Cc1ccc2[nH]c3c(N4CCc5ccccc5C4)ncnc3c2c1 | 569 nM
Cn1c2c(c(=O)n(C)c1=O)C(C(F)(F)F)(C(F)(F)F)N=C(c1ccc(Cl)cc1)N2 | 1200 nM
COc1ccc(NC(=O)/C(Cl)=C(/Cl)S(=O)Cc2ccc(C)cc2)cn1 (configuration not stated) | 752 nM
